Data from patent publication US8716292B2, “Riminophenazines with 2-(heteroaryl)amino substituents and their anti-microbial activity” (priority 2010, dated 2014).
Values after ≈ are worked out from the molar mass of the structure shown.

Tested on: Mycobacterium tuberculosis H37Rv strains
Assay: In vitro assay for antimicrobial susceptibility (microplate Alamar blue MIC)
Format: cell-based
Details: in vitro, Mycobacterium tuberculosis H37Rv strains; for MIC: Mycobacterium tuberculosis, H37RV, read-out: MIC (μg/mL) against H37Rv

SMILES	MIC [µg/mL]	MIC (μg/mL) against H37Rv [µg/mL]
CC(=O)Nc1ccc(Nc2cc3nc4ccccc4n(-c4ccc(F)cc4)c-3c/c2=N\C2CCN(C)CC2)cn1 [TBI-912, 5-(4-Fluorophenyl)-3-(N-methyl-4-piperidyl)imino-2-(6-acetamino-3-pyridyl)amino-3,5-dihydrophenazine]	0.351 (≈ 0.655 µM)	–
CC(=O)Nc1ccc(Nc2cc3nc4ccccc4n(-c4ccc(F)cc4)c-3c/c2=N\C2CCN(CC(C)C)CC2)cn1 [TBI-913, 5-(4-Fluorophenyl)-3-(N-isobutyl-4-piperidyl)imino-2-(6-acetamino-3-pyridyl)amino-3,5-dihydrophenazine]	0.144 (≈ 0.249 µM)	–
Cc1ccc(Nc2cc3nc4ccc(F)cc4n(-c4ccc(Cl)cc4)c-3c/c2=N\C(C)C)cn1 [TBI-914, 7-Fluoro-5-(4-chlorophenyl)-3-(1-methylethyl)imino-2-(6-methyl-3-pyridyl)amino-3,5-dihydrophenazine]	> 0.5	–
CO[C@H]1CC[C@H](/N=c2\cc3n(-c4ccc(F)cc4)c4ccccc4nc-3cc2Nc2ccc(NC(C)=O)nc2)CC1 [TBI-915, 5-(4-Fluorophenyl)-3-(1′,4′-trans-4-methoxycyclohexyl)imino-2-(6-acetamino-3-pyridyl)amino-3,5-dihydrophenazine]	0.211 (≈ 0.383 µM)	–
CC(=O)Nc1ccc(Nc2cc3nc4ccccc4n(-c4ccc(F)cc4)c-3c/c2=N\C2CCCCC2)cn1 [TBI-916, 5-(4-Fluorophenyl)-3-cyclohexylimino-2-(6-acetamino-3-pyridyl)amino-3,5-dihydrophenazine]	0.014 (≈ 0.0269 µM)	–
CC(=O)Nc1ccc(Nc2cc3nc4ccccc4n(-c4ccc(F)cc4)c-3c/c2=N\[C@H]2CC[C@H](O)CC2)cn1 [TBI-917, 5-(4-Fluorophenyl)-3-(1′,4′-trans-4-hydroxycyclohexyl)imino-2-(6-acetamino-3-pyridyl)amino-3,5-dihydrophenazine]	1 (≈ 1.86 µM)	–
Cc1ccc(Nc2cc3nc4ccc(F)cc4n(-c4ccc(Cl)cc4)c-3c/c2=N\C2CCCCC2)cn1 [TBI-918, 7-Fluoro-5-(4-chlorophenyl)-3-cyclohexylimino-2-(6-methyl-3-pyridyl)amino-3,5-dihydrophenazine]	0.253 (≈ 0.494 µM)	–
Fc1ccc(-n2c3c/c(=N\C4CCCCC4)c(Nc4cccnc4)cc-3nc3ccccc32)cc1 [TBI-920, 5-(4-Fluorophenyl)-3-cyclohexylimino-2-(3-pyridyl)amino-3,5-dihydrophenazine]	0.029 (≈ 0.0626 µM)	–
O[C@H]1CC[C@H](/N=c2\cc3n(-c4ccc(F)cc4)c4ccccc4nc-3cc2Nc2cccnc2)CC1 [TBI-921, 5-(4-Fluorophenyl)-3-(1′,4′-trans-4-hydroxycyclohexyl)imino-2-(3-pyridyl)amino-3,5-dihydrophenazine]	0.434 (≈ 0.905 µM)	–
Fc1ccc(-n2c3c/c(=N\C4CC4)c(Nc4cccnc4)cc-3nc3ccccc32)cc1 [TBI-922, 5-(4-Fluorophenyl)-3-cyclopropylimino-2-(3-pyridyl)amino-3,5-dihydrophenazine]	0.012 (≈ 0.0285 µM)	–
Fc1ccc(-n2c3c/c(=N\C4CCC4)c(Nc4cccnc4)cc-3nc3ccccc32)cc1 [TBI-923, 5-(4-Fluorophenyl)-3-cyclobutylimino-2-(3-pyridyl)amino-3,5-dihydrophenazine]	0.021 (≈ 0.0482 µM)	–
COc1ncccc1Nc1cc2nc3ccc(F)cc3n(-c3ccc(Cl)cc3)c-2c/c1=N\C1CCC(OC)CC1 (stereo not shown) [TBI-924]	0.06 (≈ 0.108 µM)	–
COC1CCC(/N=c2\cc3n(-c4ccc(Cl)cc4)c4cc(F)ccc4nc-3cc2Nc2ccc(C)nc2)CC1 (stereo not shown) [TBI-925]	0.078 (≈ 0.144 µM)	–
COc1ncccc1Nc1cc2nc3ccc(F)cc3n(-c3ccc(Cl)cc3)c-2c/c1=N\C(C)C [TBI-926, 7-Fluoro-5-(4-chlorophenyl)-3-(1-methylethyl)imino-2-(2-methoxy-3-pyridyl)amino-3,5-dihydrophenazine]	–	0.103 (≈ 0.211 µM)
COc1ncccc1Nc1cc2nc3ccc(F)cc3n(-c3ccc(Cl)cc3)c-2c/c1=N\C1CCCCC1 [TBI-927, 7-Fluoro-5-(4-chlorophenyl)-3-cyclohexylimino-2-(2-methoxy-3-pyridyl)amino-3,5-dihydrophenazine]	0.04 (≈ 0.0758 µM)	–
COc1ncccc1Nc1cc2nc3ccc(F)cc3n(-c3ccc(Cl)cc3)c-2c/c1=N\C1CCOCC1 [TBI-928]	0.5 (≈ 0.943 µM)	–
